Measured values taken from the supplement of paper PMC10307832.

Columns and labels:
Experiment in all cases: relative viability (nuclei count vs DMSO), 5 days (fraction); higher = more cells survive
[1] = compound: CC1=CC(=CC=C1)NC2=NC(=CS2)C3=CC=NC=C3 + Cc1cc(Nc2cc(N3CCN(C)CC3)nc(Sc3ccc(NC(=O)C4CC4)cc3)n2)n[nH]1 [Tozasertib] (partner 0.1 µM)
How it was run: (§1)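 Lung cancer cell lines were pin-tool dosed in 1536-well plates on the day after seeding, with either a lone drug or a fixed anchor-drug dose plus five library-drug doses (not always all listed) in √10 steps. Nuclei were counted on 4× images after 5 days. Relative viability is the ratio of treated-well to vehicle-well nuclei counts, with each value a median of duplicate plates.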

[2] = compound: Cc1ccc(NC(=O)c2ccc(CN3CCN(C)CC3)cc2)cc1Nc1nc(-c2cccnc2)cs1 [Masitinib] + CC(=O)c1c(C)c2cnc(Nc3ccc(N4CCNCC4)cn3)nc2n(C2CCCC2)c1=O [Palbociclib] (partner 0.5 µM)
How it was run: as §1

[3] = compound: Cc1ccc(NC(=O)c2ccc(CN3CCN(C)CC3)cc2)cc1Nc1nc(-c2cccnc2)cs1 [Masitinib] + CC1(C)CCC(c2ccc(Cl)cc2)=C(CN2CCN(c3ccc(C(=O)NS(=O)(=O)c4ccc(N[C@H](CCN5CCOCC5)CSc5ccccc5)c(S(=O)(=O)C(F)(F)F)c4)cc3)CC2)C1 [Navitoclax] (partner 0.5 µM)
How it was run: as §1

[4] = compound: Cc1ccc(NC(=O)c2ccc(CN3CCN(C)CC3)cc2)cc1Nc1nc(-c2cccnc2)cs1 [Masitinib] + C[C@]1(O)C[C@@H](c2nc(-c3ccc4ccc(-c5ccccc5)nc4c3)c3c(N)nccn32)C1 [Linsitinib] (partner 1 µM)
How it was run: as §1

Row | Cell Line | relative viability ([1]; first compound 0.08 µM) | relative viability ([1]; first compound 0.253 µM) | relative viability ([1]; first compound 0.8 µM) | relative viability ([1]; first compound 2.53 µM) | relative viability ([1]; first compound 8 µM) | relative viability ([2]; first compound 0.01 µM) | relative viability ([2]; first compound 0.03162 µM) | relative viability ([2]; first compound 0.1 µM) | relative viability ([2]; first compound 0.3162 µM) | relative viability ([2]; first compound 1 µM) | relative viability ([3]; first compound 0.01 µM) | relative viability ([3]; first compound 0.03162 µM) | relative viability ([3]; first compound 0.1 µM) | relative viability ([3]; first compound 0.3162 µM) | relative viability ([3]; first compound 1 µM) | relative viability ([4]; first compound 0.01 µM) | relative viability ([4]; first compound 0.03162 µM) | relative viability ([4]; first compound 0.1 µM) | relative viability ([4]; first compound 0.3162 µM) | relative viability ([4]; first compound 1 µM)
1 | HOP-62 | 0.378 | 0.381 | 0.363 | 0.41 | 0.421 | 0.455 | 0.447 | 0.59 | 0.438 | 0.506 | 0.93 | 1.02 | 0.76 | 1.11 | 1.05 | 0.916 | 0.978 | 0.973 | 0.917 | 0.833
2 | HARA | 0.112 | 0.101 | 0.104 | 0.104 | 0.133 | 0.271 |  | 0.244 | 0.254 | 0.254 | 1.16 | 1.06 | 1.2 | 1.2 | 1.19 | 0.894 | 1.02 | 1.08 | 0.917 | 1.06
3 | NCI-H1792 |  |  |  |  |  | 0.572 | 0.448 | 0.701 | 0.611 | 0.611 | 0.563 | 0.239 | 0.643 | 0.65 | 0.673 | 0.504 | 0.224 | 0.533 | 0.454 | 0.529
4 | IA-LM |  |  |  |  |  |  |  |  |  |  | 0.733 | 0.699 | 1.02 | 0.689 | 1.01 | 0.365 | 0.541 | 0.557 | 0.504 | 0.451
5 | NCI-H1299 |  |  |  |  |  |  |  |  |  |  | 1.08 | 1.03 | 1.04 | 1.04 | 1.03 | 0.778 | 1.02 | 1.06 | 1.09 | 0.879
6 | NCI-H661 | 0.33 | 0.367 | 0.353 | 0.341 | 0.333 | 0.331 | 0.374 | 0.363 | 0.372 | 0.377 |  |  |  |  |  | 0.653 | 0.569 | 0.577 | 0.584 | 0.428
7 | NCI-H1703 |  |  |  |  |  |  |  |  |  |  | 0.748 | 0.898 | 0.464 | 0.29 | 0.243 | 0.667 | 1.02 | 0.479 | 0.23 | 0.187
8 | NCI-H596 | 0.93 | 0.968 | 0.745 | 0.861 | 0.746 |  |  |  |  |  | 0.876 | 0.855 | 0.86 | 0.894 | 0.866 | 1.21 | 0.98 | 1.05 | 1.14 | 1.05
9 | NCI-H650 | 0.654 | 0.646 | 0.78 | 0.645 | 0.727 | 0.33 | 0.332 | 0.331 | 0.318 | 0.318 |  |  |  |  |  | 0.796 | 0.752 | 0.896 | 0.981 | 0.806
